{"source": "patent US4496591A", "about": "“Insecticidal bis-carbamate sulfides” (priority 1981, dated 1985)", "format_in_all_cases": "in vivo", "key": {"[1]": {"tested_on": "southern armyworm (Spodoptera eridania, (Cram.)) larvae", "assay": "Southern armyworm leaf spray bait test", "parameters": "key: A: excellent control; B: partial control; C: no control at 500 ppm", "conditions": "500 parts per million, three days", "description": "(§1) Suspensions of the test compounds were prepared by dissolving one gram of compound in 50 milliliters of acetone in which had been dissolved 0.1 gram (10 percent of the weight of compound) of an alkylphenoxy polyethoxyethanol surfactant, as an emulsifying or dispersing agent. The resulting solution was mixed into 150 milliliters of water to give roughly 200 milliliters of a suspension containing the compound in finely divided form. The thus-prepared stock suspension contained 0.5 percent by weight of compound. The concentrations in parts per million by weight employed in the tests described hereinbelow were obtained by appropriate dilutions of the stock suspension with water. The test procedures were as follows:\nLarvae of the southern armyworm (Spodoptera eridania, (Cram.)), reared on Tendergreen bean plants at a temperature of 80±5° F. and a reative humidity of 50±5 percent, constituted the test insects.\nThe test compounds were formulated by diluting the stock suspension with water to give a suspension containing 500 parts of test compound per million parts of final formulation. Potted Tendergreen bean plants of standard height and age were placed on a revolving turntable and sprayed with 100-110 milliliters of test compound formulation by use of a DeVilbiss spray gun set at 40 psig air pressure. This application, which lasted 25 seconds, was sufficient to wet the plants to run-off. As a control, 100-110 milliliters of a water-acetone-emulsifier solution containing no test compound were also sprayed on infested plants. When dry, the paired leaves were separated and each one was placed in a 9 centimeter Petri dish lines with moistened filter paper. Five randomly selected larvae were introduced into each dish and the dishes were closed. The closed dishes were labeled and held at 80°-85° F. for three days. Although the larvae could easily consume the whole leaf within twenty-four hours, no more food was added. Larvae which were unable to move the length of the body, even upon stimulation by prodding, were considered dead.\n(§2) In these tests the pesticidal activity of the compounds at the indicated dosage rate against aphid, Southern Armyworm, Bean Beetle and housefly was rated as follows: […]"}, "[2]": {"tested_on": "house flies (Musca domestica, L.)", "assay": "Fly bait test", "parameters": "key: A: excellent control; B: partial control; C: no control at 500 ppm", "conditions": "500 parts per million, sugar bait, twenty-four hours", "description": "as §1\nFour to six day old adult house flies (Musca domestica, L.), reared according to the specifications of the Chemical Specialties Manufacturing Association (Blue Book, McNair-Dorland Co., N.Y. 1954; pages 243-244, 261) under controlled conditions of 80±5° F. and 50±5 percent relative humidity, were the test insects. The flies were immobilized by anesthetizing them with carbon dioxide. Twenty-five immobilized individuals, males and females, were transferred to a cage consisting of a standard food strainer about five inches in diameter which was inverted over a wrapping-paper-covered surface. The test compounds were formulated by diluting the stock suspension with a 10 percent (by weight) sugar solution to give a suspension containing 500 parts of test compound per million parts of final formulation, by weight. Ten milliliters of the test formulation were added to a souffle cup containing a one-inch square of an absorbent cotton pad. This bait cup was introduced and centered on the blotting paper under the food strainer prior to admitting the anesthetized flies. The caged flies were allowed to feed on the bait for twenty-four hours, at a temperature of 80±5° F. and at a relative humidity of 50±5 percent.\nas §2"}, "[3]": {"tested_on": "root-knot nematode, Meloidogyne incognita var. acrita", "assay": "Nematocide test", "parameters": "key: 1: severe galling, equal to untreated plants; 2: moderate galling; 3: light galling; 4: very light galling; 5: no galling, perfect control", "conditions": "3.33 m.g. per jar, cucumber, approximately 3 weeks", "description": "The test organism used was the infective migratory larvae of the root-knot nematode, Meloidogyne incognita var. acrita, reared in the greenhouse on roots of cucumber plants. Infected plants were removed from the culture, and the roots were chopped very finely. A small amount of this inoculum was added to a pint jar containing approximately 180 cc. of soil. The jars were capped and incubated for one week at room temperature. During this period eggs of the nematode were hatched, and the larval forms migrated into the soil.\nTen ml. of the test formulation were added to each of the two jars for each dosage tested. Following the addition of chemical, the jars were capped, and the contents thoroughly mixed on a ball mill for […].\nThe test compounds were formulated by a standard procedure of solution in acetone addition of an emulsifier, and dilution with water. Primary screening tests were conducted at 3.33 m.g. of the test compound per jar.\nThe jars were left capped at room temperature for a period of 48 hours, and the contents then transferred to 3 inch pots. Subsequently, the pots were seeded to cucumber as an indicator crop and placed in the greenhouse where they were cared for in the normal fashion for approximately 3 weeks.\nThe cucumber plants were then taken from the pots, the soil removed from the roots, and the amount of galling visually rated.\nIn the test for activity against nematodes activity was rated as follows: […]"}, "[4]": {"tested_on": "housefly adults (Musca domestica)", "assay": "Comparative residual effect in soil", "description": "Selected species of the new compounds were evaluated for their residual pesticidal activity in soil. […] The residual activity test were conducted using five to seven-day old housefly adults (Musca domestica).\nThe soil mixture used was one part agricultural soil and three parts sand. The agricultural soil was stored in plastic bags in a freezer, immediately after removal from the field. This was done to reduce microbial multiplication. Two weeks prior to use, the soil was thawed and held at room temperature to allow microbial population to equilibrate. The sand and soil were sifted to remove clumps and debris and were then blended by rolling on a roller mill in a closed metal container. The moisture level was adjusted to 15% by weight.\nThe concentration in the soil of the compound to be tested was four times the amount (in parts per million) necessary to achieve a mortality rate of 50% on contact with the soil (LD50). This is in accordance with the procedure developed by C. R. Harris of the Research Institute, Canadian Department of Agriculture, London, Ontario. Such procedure is disclosed in \"Biological Activity of Chloropyrifos, Chlorpyrifor-Methyl, Phorate, and Counter® in Soil\", The Canadian Entomologist, Vol. 109, pp. 1115-1120 (August 1977); and in \"Laboratory Studies on the Persistance of Biological Activity of Some Insecticides in Soils\", Journal of Economic Entomology, Vol. 62, No. 6, pp. 1437-1441 (December 1969).\nAn appropriate amount of compound was dissolved in an acetone--Triton solution and was diluted with water. Five mililiters of the formulated chemical was applied to four ounces of soil mixture and rolled in a 16-ounce glass jar to blend the compound evenly with the soil. Ten mililiters of granular cane sugar was then mixed thoroughly with the treated soil in an eight-ounce plastic container.\nTwenty-five housefly adults, anesthetized with CO2, were then transferred to the soil and were covered with a perforated plastic lid. The test containers were held for 24 hours in a constant environment at a temperature of 80±5° F. and a relative humidity of […]. Mortality was based on the ability of the fly to move in a normal manner without spinning.\nThe above process was repeated on treated soil which had been incubated at 25° C. and 90% relative humidity for 1, 4, 6 and 8 weeks after initial exposure. This was necessary because the soil is incubated without sugar, sugar being added at the time of reinfestation. For this reason, appropriate volumes of soil had to be treated at the start of the soil test to last for the expected residual period."}}, "data": [{"molecule": "CSC(C)=NOC(=O)N(C)SN(C)C(=O)Oc1cccc(C=O)c1", "note": "[Compound 3]", "values": [{"measurement": "Southern Armyworm, pesticidal activity rating", "setting": "[1]", "value": "A"}, {"measurement": "Housefly, pesticidal activity rating", "setting": "[2]", "value": "A"}, {"measurement": "Root-Knot Nematode, galling rating", "setting": "[3]", "value": 1}, {"measurement": "Residual effect in soil (mortality), 0 weeks", "setting": "[4]; 0 weeks, soil concentration four times LD50, housefly, 24 hours", "value": 100}, {"measurement": "Residual effect in soil (mortality), 1 week", "setting": "[4]; 1 week, soil concentration four times LD50, 25° C., 90% relative humidity, 10080 min", "value": 100}, {"measurement": "Residual effect in soil (mortality), 4 weeks", "setting": "[4]; 4 weeks, soil concentration four times LD50, 25° C., 90% relative humidity, 40320 min", "value": 73}, {"measurement": "Residual effect in soil (mortality), 8 weeks", "setting": "[4]; 8 weeks, soil concentration four times LD50, 25° C., 90% relative humidity, 80640 min", "value": 40}, {"measurement": "Residual Activity (weeks)", "setting": "[4]; soil concentration four times LD50, housefly", "value": "4-8 weeks"}]}]}
